Source: US8629276B2, “Inhibitors of human immunodeficiency virus replication” (priority 2012, dated 2014)
pEC50: −log10 of the molar value.

Test system: recombinant NL-Rluc virus
Assay: Inhibition of HIV replication (NL-RLuc virus, luciferase readout in MT-2 cells)
Assay type: cell-based
Conditions: Human immunodeficiency virus 1, MT2, 120 h

SMILES | pEC50
CC(C)c1nc2c(c(-c3ccc(F)cc3)c1C(OC(C)(C)C)C(=O)O)CN(c1ccc(-c3ccccc3)cc1)CC2(C)C (stereo not shown) [Example 18, 2-(6-([1,1′-Biphenyl]-4-yl)-4-(4-fluorophenyl)-2-isopropyl-8,8-dimethyl-5,6,7,8-tetrahydro-1,6-naphthyridin-3-yl)-2-(tert-butoxy)acetic acid] | 5.70
Cc1ccc(-c2c3c(nc(C)c2C(OC(C)(C)C)C(=O)O)CCN(C(=O)OCc2ccccc2)C3)cc1 (stereo not shown) [Example 19, 2-(6-((Benzyloxy)carbonyl)-2-methyl-4-(p-tolyl)-5,6,7,8-tetrahydro-1,6-naphthyridin-3-yl)-2-(tert-butoxy)acetic acid] | 6.65
Cc1ccc(-c2c3c(nc(C)c2C(OC(C)(C)C)C(=O)O)CCNC3)cc1 (stereo not shown) [Example 20, 2-(tert-Butoxy)-2-(2-methyl-4-(p-tolyl)-5,6,7,8-tetrahydro-1,6-naphthyridin-3-yl)acetic acid] | 4.87
Cc1ccc(-c2c3c(nc(C)c2C(OC(C)(C)C)C(=O)O)CCN(Cc2ccccc2)C3)cc1 (stereo not shown) [Example 21, 2-(6-Benzyl-2-methyl-4-(p-tolyl)-5,6,7,8-tetrahydro-1,6-naphthyridin-3-yl)-2-(tert-butoxy)acetic acid] | 6.53
Cc1ccc(-c2c3c(nc(C)c2C(OC(C)(C)C)C(=O)O)CCN(S(C)(=O)=O)C3)cc1 (stereo not shown) [Example 22, 2-(tert-Butoxy)-2-(2-methyl-6-(methylsulfonyl)-4-(p-tolyl)-5,6,7,8-tetrahydro-1,6-naphthyridin-3-yl)acetic acid] | 5.58
Cc1ccc(-c2c3c(nc(C)c2C(OC(C)(C)C)C(=O)O)CCN(C)C3)cc1 (stereo not shown) [Example 23, 2-(tert-Butoxy)-2-(2,6-dimethyl-4-(p-tolyl)-5,6,7,8-tetrahydro-1,6-naphthyridin-3-yl)acetic acid] | 5.68
Cc1ccc(-c2c3c(nc(C)c2C(OC(C)(C)C)C(=O)O)CCN(CCc2ccccc2)C3)cc1 (stereo not shown) [Example 24, 2-(tert-Butoxy)-2-(2-methyl-6-phenethyl-4-(p-tolyl)-5,6,7,8-tetrahydro-1,6-naphthyridin-3-yl)acetic acid] | 6.62
CC(=O)N1CCc2nc(C)c(C(OC(C)(C)C)C(=O)O)c(-c3ccc(C)cc3)c2C1 (stereo not shown) [Example 25, 2-(6-Acetyl-2-methyl-4-(p-tolyl)-5,6,7,8-tetrahydro-1,6-naphthyridin-3-yl)-2-(tert-butoxy)acetic acid] | 5.72
COC(=O)N1CCc2nc(C)c(C(OC(C)(C)C)C(=O)O)c(-c3ccc(C)cc3)c2C1 (stereo not shown) [Example 26, 2-(tert-Butoxy)-2-(6-(methoxycarbonyl)-2-methyl-4-(p-tolyl)-5,6,7,8-tetrahydro-1,6-naphthyridin-3-yl)acetic acid] | 5.78
Cc1ccc(-c2c3c(nc(C)c2C(OC(C)(C)C)C(=O)O)CCN(C(=O)NCc2ccccc2)C3)cc1 (stereo not shown) [Example 27, 2-(6-(Benzylcarbamoyl)-2-methyl-4-(p-tolyl)-5,6,7,8-tetrahydro-1,6-naphthyridin-3-yl)-2-(tert-butoxy)acetic acid] | 6.30
Cc1ccc(-c2c3c(nc(C)c2C(OC(C)(C)C)C(=O)O)CCN(C(=O)CCc2ccccc2)C3)cc1 (stereo not shown) [Example 28, 2-(tert-Butoxy)-2-(2-methyl-6-(3-phenylpropanoyl)-4-(p-tolyl)-5,6,7,8-tetrahydro-1,6-naphthyridin-3-yl)acetic acid] | 6.47
Cc1ccc(-c2c3c(nc(C)c2C(OC(C)(C)C)C(=O)O)CCN(CCCc2ccccc2)C3)cc1 (stereo not shown) [Example 29, 2-(tert-Butoxy)-2-(2-methyl-6-(3-phenylpropyl)-4-(p-tolyl)-5,6,7,8-tetrahydro-1,6-naphthyridin-3-yl)acetic acid] | 8.00
Cc1ccc(-c2c3c(nc(C)c2C(OC(C)(C)C)C(=O)O)CCN(c2ccc(-c4ccccc4)cc2)C3)cc1 (stereo not shown) [Example 30, 2-(6-([1,1′-Biphenyl]-4-yl)-2-methyl-4-(p-tolyl)-5,6,7,8-tetrahydro-1,6-naphthyridin-3-yl)-2-(tert-butoxy)acetic acid] | 6.49
